Reference: a melting point compilation (Tetko et al.; mined from patent text by program, amines drawn as free bases though some values may be those of a salt)

Row | Structure (SMILES) | melting point [°C]
1 | CC(C)CN1CCN(c2cc3ccccc3c(=O)[nH]2)CC1CO (configuration not stated) | 130 to 132
2 | COc1cc(N(CC(C)C)CC(C)C)ccc1CN1C(=O)C(C)(c2ccccc2Cl)c2cc(Cl)ccc21 (configuration not stated) | 153
3 | O=c1n(Cc2ccc([N+](=O)[O-])cc2)c2ccc(Cl)cc2n1C1CCCCC1 | 139
4 | Cc1cc(-n2ccnc2)c2cccc(OCc3c(Cl)ccc(S(=O)(=O)N4CCC[C@H]4C(=O)N(C)CCCN(C)C(=O)OC(C)(C)C)c3Cl)c2n1 | 70
5 | OC[C@@H](OCc1ccccc1)[C@@H](O)[C@H](O)[C@@H](CO)OCc1ccccc1 | 116 to 117
6 | CON=C(c1cc(C)on1)c1ccccc1COc1ncc(Cl)cc1C(F)(F)F | 120 to 121
7 | CCC(=O)N1C(=O)OC(C)(C)[C@H]1c1ccccc1 | 60
8 | CC(SC1COC(c2ccc(C(=O)Nc3ccc(C#N)c(Cl)c3)cc2)OC1)C(O)(Cn1cncn1)c1ccc(F)cc1F (configuration not stated) | 115
9 | CCOCCS(=O)(=O)c1nc[nH]n1 | 91.5 to 92.5
10 | CCCCc1cn(Cc2ccc(-c3ccccc3C(=O)O)cc2)c2cc(C(=O)O)ccc2c1=O | > 260
11 | CC(=O)Nc1cc(F)ccc1O | 185 to 186
12 | CCOC(=O)c1cc(N=c2sc(=O)n3n2CCCC3)c(Cl)cc1Cl | 81 to 83
13 | Cc1c(CCC(=O)O)c2cc(Cl)ccc2n1Cc1ccc(Br)cc1 | 154 to 155
14 | S=P12SP3(=S)SP(=S)(S1)SP(=S)(S2)S3 | 165 to 166
15 | CCOC(=O)C1=CNC2=C(C(=O)OC)CCC(C)N2C1=O (configuration not stated) | 136 to 139
16 | CC(=O)NC[C@@H]1CCCc2cc(Sc3ccccc3)cc(F)c21 | 94.6 to 95.9
17 | CCCNC(=O)COC1c2ccccc2C(=O)N1c1ccc2ccc(Cl)nc2n1 (configuration not stated) | 167
18 | COC(=O)C1CC(C#N)(c2ccc(OC(F)F)c(OC3CCCC3)c2)CCC1=O (configuration not stated) | 109 to 110
19 | CN(C)CC1CN(c2ccccc2)NC1=N (configuration not stated) | 117 to 118
20 | NC(=S)NCCSCc1c[nH]cn1 | 135 to 137
21 | Nc1nc(NCC(O)CO)c2ncn(C3C=CC(CO)C3)c2n1 (configuration not stated) | 119 to 121
22 | CCCN(CCC)Cc1cnc(-c2ncn3c2[C@@H]2CCN2C(=O)c2sccc2-3)o1 | 133 to 135
23 | O=C1CCCCc2sccc2N1CCCCN1CCN(c2ncccn2)CC1 | 108 to 112
24 | C=CC1=C(C(=O)OCC)C(C(F)(F)F)Oc2ccc(Cl)cc21 (configuration not stated) | 51.9 to 53.2
25 | COc1cc2c(cc1Nc1ncc(Cl)c(Nc3ccc(C(N)=O)cc3OC)n1)CCN(CCS(C)(=O)=O)CC2 | 207 to 217

Row | Structure (SMILES) | melting point [°C]
26 | Cc1ccc2c(c1)C(=O)N1CCN=C1N2N1CCOCC1 | 227 to 228
27 | NC(=S)C=Cc1ccc(SC(F)(F)F)cc1 | 143 to 144
28 | CNC(=O)n1nc(Oc2ncc(C(F)(F)F)cc2Cl)cc1C(F)(F)F | 61 to 63
29 | CC(C)(C)c1cc(CC(Cc2cc(C(C)(C)C)c(O)c(C(C)(C)C)c2)(Cc2cc(C(C)(C)C)c(O)c(C(C)(C)C)c2)[N+](=O)[O-])cc(C(C)(C)C)c1O | 199 to 201
30 | CC1C=NNc2c(-c3ccc(F)cc3)c(-c3ccncc3)nn21 (configuration not stated) | 204
31 | Cc1cc(N2C=C3C(c4ccccc4)=C(OCc4ncn(C)n4)NN3C=N2)no1 | 194 to 196
32 | C[C@H]1C=CC2=C[C@@H](O)C[C@H](OC(=O)C(C)(C)C)[C@@H]2[C@H]1CC[C@@H]1C[C@@H](O)CC(=O)O1 | 132 to 133
33 | N#CCCN(CCC#N)c1ccccc1C#N | 79 to 82
34 | O=C(O)C(CBr)(CBr)COCC(CBr)(CBr)C(=O)O | 189 to 193
35 | Cc1nc2c(-c3cccc(N4CCN(C)CC4)c3)cnn2c(N)c1-c1ccc(F)c(F)c1 | 216 to 219
36 | Nc1ccc(CCNC(=O)C(F)(F)F)cc1 | 81 to 85
37 | CNC(=O)/C(=N/OC)c1ccccc1COc1ncc(Cl)cc1C(F)(F)F | 105 to 106
38 | CCn1cc(C(=O)NCc2ccc(Cl)cc2)c(=O)c2cc(CCCO)sc21 | 144 to 146
39 | Cc1nn(CCO)c(-c2ccc(F)cc2)c1-c1ccc2c(c1)NC(=O)CO2 | 178 to 179
40 | COc1cc2ncnc(N3CCN(C(=O)Nc4ccc(S(C)(=O)=O)cc4)CC3)c2cc1OC | 266 to 269
41 | Cc1nccn1CCCNC(=O)c1cccnc1Cl | 126 to 128
42 | CC(=O)c1cc(Br)c(N)c(CN(C)C)c1 | 92 to 95
43 | CC(C)C(=O)c1cn(Cc2c(F)cccc2F)c2sc(-c3ccc([N+](=O)[O-])cc3)c(CN(C)Cc3ccccc3)c2c1=O | 158 to 162
44 | CCCCC1c2sccc2CCN1CCNC(=O)c1ccc(NS(C)(=O)=O)cc1 (configuration not stated) | 98 to 105
45 | CCNC(=S)NS(=O)(=O)N1CCC(CCNC(=O)c2cc(Cl)ccc2OC)CC1 | 138 to 140
46 | COc1ccccc1C(=O)N1CCN(C(=O)CN2CCC(O)(c3ccccc3)CC2)C(c2ccc(Cl)c(Cl)c2)C1 (racemic) | 112 to 114
47 | O=c1nc(-c2cccc(-n3cccn3)n2)sc2ccccc12 | 253 to 254
48 | CCOC(=O)c1nc2ccc(N)cc2c(O)c1C(=O)OCC | 219 to 221
49 | N#Cc1ccc2c(c1)C(=C(Cl)Cl)OC(C(Cl)(Cl)Cl)O2 (configuration not stated) | 125 to 126
50 | CCCCOC(=O)C(N)c1ccc(OCC(O)CNC(C)C)nc1 (configuration not stated) | 85 to 87

Row | Structure (SMILES) | melting point [°C]
51 | COC(=O)Nc1ccc(-c2ncn(-c3ccc(OC(F)(F)C(F)(F)F)cc3)n2)cc1 | 183 to 184
52 | CC(=O)C1(Nc2ccccc2)CCN(C(C)C)CC1 | 107
53 | Cc1n[nH]c2c1C[C@@H]1CN(C)CC[C@H]1C2 (relative stereo) | 160 to 162
54 | COc1ccc(OCC#CCCC(N)N2C(=O)c3ccccc3C2=O)cc1 (configuration not stated) | 51 to 53
55 | NC(=O)c1cc(N2CCN(Cc3ccc(F)cc3)C2=O)n[nH]1 | 256 to 258
56 | CCOC(=O)c1ccccc1Nc1ccccc1O | 105 to 106
57 | CCOC(=O)CCn1c(-c2ccc(F)cc2)cc2ccccc2c1=O | 125 to 126
58 | COC(=O)C(CSc1ccccc1)N1CC(NC(=O)C(=NO)c2ccccc2)C1=O (configuration not stated) | 163 to 169
59 | O=S(=O)(NC1(CO)CCCC1)c1ccc2c(Cl)cnc(Cl)c2c1 | 148 to 150
60 | Cc1ccc(-n2c(-c3cc(C)ccc3C=Cc3ccccc3)ccc2-c2cc(C)ccc2C=Cc2ccccc2)cc1 | 314 to 316
61 | CC(C)(C)NC(=O)C1(O)CC(C)(C)NC(C)(C)C1 | 134 to 136
62 | CN1Cc2c(C#CI)ncn2-c2cccc(Cl)c2C1=O | 215 to 216
63 | N#Cc1ccccc1-c1c(O)ccc2c3c(oc12)-c1cc(O)ccc1CC3 | 277 to 279
64 | COc1ccc2c(c1)C(Cc1ccnc(F)c1)(Cc1ccnc(F)c1)c1cccnc1O2 | 196 to 197
65 | O=C(c1ccccc1)N1CCCC(c2nc(-c3ccc(F)cc3)no2)C1 (configuration not stated) | 82 to 83
66 | COc1ccc(C2SCC(C(=O)O)N2C(=O)c2ccccc2)cc1 (configuration not stated) | 108 to 110
67 | N#CCNC(=O)c1ccco1 | 85 to 93
68 | COCOc1ccccc1-c1cc(-c2cccc([N+](=O)[O-])c2)c(C#N)c(N)n1 | 169 to 171
69 | Cc1ccc(CSc2nc3cc4c(cc3[nH]2)OCO4)nc1 | 187 to 188
70 | CNC(=O)c1c(-c2ccccc2)noc1CC(=O)c1ccccn1 | 146 to 149
71 | CC(C)(C)NS(=O)(=O)c1ccccc1C(O)c1ccccc1 (configuration not stated) | 160
72 | CCN1C(=O)C(C)(C)C(=O)N(C)c2cc(OCCCN3C(=O)C4(OCCO4)c4ccccc43)ccc21 | 143 to 147
73 | Cc1ccc(-c2cc3ccc(C(=O)Nc4ccc(CN(C)C5CCOCC5)cc4)cc3o2)cc1 | 224 to 227
74 | CCOC(=O)c1nn(-c2ccc(Br)cc2)c(=O)c(C#N)c1C | 174 to 176
75 | COc1cc2cc(C(=O)OC(C)(C)C)c(N)cc2cc1OCCN1CCOCC1 | 125 to 127

Row | Structure (SMILES) | melting point [°C]
76 | Cc1ccc2cccc(OCc3c(Cl)ccc(S(=O)(=O)N(C)C(C)(C)C)c3Cl)c2n1 | 160 to 162
77 | C=CCc1cc2ccc(=O)oc2c(OC)c1OC(C)=O | 101 to 102
78 | CCc1nc2c(C)cc(C)nc2n1Cc1ccc2oc(-c3cccc(F)c3C(=O)O)c(Br)c2c1 | 191 to 194
79 | CC1Nc2ccc(-c3ccc(F)c(C#N)c3)cc2C(C)(C)O1 (configuration not stated) | 184 to 186
80 | O=C(Nc1ccc(Oc2ccc(C(O)CCC(=O)N3CCOCC3)cc2)c(F)c1)c1ccc(Cl)c(Cl)c1 (configuration not stated) | 108 to 111
81 | C(=C\c1nc2ccccc2n1-c1ccccn1)/c1ccco1 | 164 to 165
82 | O=[N+]([O-])c1ccc(-n2nnnc2-c2ccccc2-c2ccc(CBr)cc2)cc1 | 192 to 195
83 | CCc1ccc(-c2coc3c(C)c(C)c(N)c(C)c23)cc1 | 68 to 69
84 | COc1ccc2c(c1)CCN(C=O)C2c1cc(Cl)nc(Cl)c1 (single isomer, unassigned; (-)) | 156 to 158
85 | C[C@H](O)[C@H]1C(=O)N2C(C(=O)OCc3ccc([N+](=O)[O-])cc3)=C(SCCNC(=O)COc3ccccc3)C[C@H]12 | 115 to 118
86 | O=C(c1ccccc1)c1ccc(OCCCCCCCCBr)cc1 | 59 to 61
87 | Cc1cc(Cl)ccc1C(=O)CN(C(=O)C(C)Cl)c1ccccc1 (configuration not stated) | 128
88 | COc1ccc(-c2sc3cc(OC)ccc3c2C(=O)c2c(OC)cccc2OC)cc1 | 146 to 152
89 | CCCc1c(OCc2cccc(OCc3ccc4ccccc4n3)c2)ccc2c(=O)cc(C(=O)OCC)oc12 | 120 to 121
90 | CC1CC(=O)NN=C1c1ccc(N2CCNCC2)c(F)c1 (configuration not stated) | 172 to 174
91 | CC(C)c1nc(CCCOc2ncccc2CC(=O)O)c(Cc2ccc(Cl)cc2Cl)s1 | 106 to 107
92 | CC1C(=O)N(c2ccc(OCc3ccccc3)cc2)C(=S)N1c1ccccc1 (configuration not stated) | 155
93 | NNc1ccc(-c2cccc(Cl)c2)nn1 | 173 to 174
94 | Cc1n[nH]c(C)c1-c1cncc(OC2SCC(O)C(O)C2O)c1 (configuration not stated) | 227
95 | CC(C)(CCCCCNS(=O)(=O)c1ccc(Cl)cc1)C(=O)O | 132 to 133
96 | COC(=O)c1cccc(/C=C/c2cc3ccccc3o2)c1 | 98 to 100
97 | OCC1OC(n2c(NC3CC3)nc3cc(Cl)c(Cl)cc32)C(O)C1O (configuration not stated) | 184 to 186
